Test results taken from ChEMBL document CHEMBL4513161, “CO-ADD screening of MMV (CH) - Pandemic Response Box” (2021).
In brackets after ≈: the same amount, converted by molar mass.

Columns and labels:
[1] = system: HEK293; assay: cells; format: functional, Homo sapiens, ATCC CRL1573; settings: Homo sapiens, ATCC CRL1573, HEK293; ASSAY_TEST Inhibition of Cell Viability; detection method Resazurin; Fluorescence (ex560/em590); MEDIA DMEM with 10% FBS; plate type 384well; TC; CORNING #3712; time 18 hr; read-out: CC50
[2] = system: Pseudomonas aeruginosa; assay: Antibacterial activity against Pseudomonas aeruginosa PAO397 [PAO1 d(mexAB-oprM) d(mexCD-oprJ) d(mexEF-oprN) d(mexJKL) d(mexXY) d(opmH)] (CO-ADD:GN_211); MIC in CAMBH media using NBS plates, by OD(600); format: functional; settings: ASSAY_TEST Inhibition of Bacterial Growth, detection method Absorption (OD600), MEDIA CAMHB, plate type 384well, CORNING #3640, time 18 hr
[3] = system: Cryptococcus neoformans
Description: Antifungal activity against Cryptococcus neoformans H99 ATCC 208821 (CO-ADD:FG_002); MIC in YNB media using NBS plates, by Resazurin OD(600-570)

[4] = system: Staphylococcus aureus; assay: microbe, parasite or virus in culture; settings: ATCC 43300, 18 h, ASSAY_TEST Inhibition of Bacterial Growth, detection method Absorption (OD600), MEDIA CAMHB, plate type 384well, NBS, CORNING #3640
Description: Antibacterial activity against Staphylococcus aureus MRSA ATCC 43300 (CO-ADD:GP_020); MIC in CAMBH media, using NBS plates, by OD(600)

[5] = system: Escherichia coli; assay: microbe, parasite or virus in culture; settings: ATCC 25922, 18 h, ASSAY_TEST Inhibition of Bacterial Growth, detection method Absorption (OD600), MEDIA CAMHB, plate type 384well, NBS, CORNING #3640
Description: Antibacterial activity against Escherichia coli ATCC 25922 (CO-ADD:GN_001); MIC in CAMBH media using NBS plates, by OD(600)

[6] = system: Klebsiella pneumoniae; assay: microbe, parasite or virus in culture; settings: ATCC 700603, 18 h, ASSAY_TEST Inhibition of Bacterial Growth, detection method Absorption (OD600), MEDIA CAMHB, plate type 384well, NBS, CORNING #3640
Description: Antibacterial activity against Klebsiella pneumoniae MDR ATCC 70063 (CO-ADD:GN_003); MIC in CAMBH media using NBS plates, by OD(600)

[7] = system: Pseudomonas aeruginosa; assay: microbe, parasite or virus in culture; settings: ATCC 27853, 18 h, ASSAY_TEST Inhibition of Bacterial Growth, detection method Absorption (OD600), MEDIA CAMHB, plate type 384well, NBS, CORNING #3640
Description: Antibacterial activity against Pseudomonas aeruginosa ATCC 27853 (CO-ADD:GN_042); MIC in CAMBH media using NBS plates, by OD(600)

[8] = system: Acinetobacter baumannii; assay: microbe, parasite or virus in culture; settings: ATCC 19606, 18 h, ASSAY_TEST Inhibition of Bacterial Growth, detection method Absorption (OD600), MEDIA CAMHB, plate type 384well, NBS, CORNING #3640
Description: Antibacterial activity against Acinetobacter baumannii ATCC 19606 (CO-ADD:GN_034); MIC in CAMBH media using NBS plates, by OD600

[9] = system: Candida albicans; assay: microbe, parasite or virus in culture; settings: ATCC 90028, ASSAY_TEST Inhibition of Fungal Growth, detection method Absorption (OD530), plate type 384well, NBS, CORNING #3640
Description: Antifungal activity against Candida albicans ATCC 90028 (CO-ADD:FG_001); MIC in YNB media using NBS plates, by OD630

| MIC [2] | MIC [3] | MIC [4] | MIC [5] | MIC [6] | MIC [7] | MIC [8] | MIC [9] | SMILES | CC50 [1] |
| --- | --- | --- | --- | --- | --- | --- | --- | --- | --- |
| > 20 µM | > 20 µM | > 20 µM | > 20 µM | > 20 µM | > 20 µM | > 20 µM | > 20 µM | NC1C2CC3CC(C2)CC1C3 (stereo not given) | > 20 µM |
| > 20 µM | > 20 µM | > 20 µM | > 20 µM | > 20 µM | > 20 µM | > 20 µM | > 20 µM | OCCCCn1cnc2c(O)nc(NCc3ccc(Cl)c(Cl)c3)nc21 | > 20 µM |
| > 20 µM | > 20 µM | > 20 µM | > 20 µM | > 20 µM | > 20 µM | > 20 µM | > 20 µM | CC[C@@H](CO)NCCN[C@@H](CC)CO [ETHAMBUTOL] | > 20 µM |
| > 20 µM | > 20 µM | > 20 µM | > 20 µM | > 20 µM | > 20 µM | > 20 µM | > 20 µM | O=C(Nc1ccc(N2CCN(C(=O)c3ccccc3)CC2)cc1)c1ccc2c(c1)OCO2 | > 20 µM |
| > 20 µM | > 20 µM | > 20 µM | > 20 µM | > 20 µM | > 20 µM | > 20 µM | > 20 µM | Oc1c(C(Nc2nc3ccccc3s2)c2ccc(OC(F)F)cc2)ccc2cccnc12 (stereo not given) | 9.22 µM |
| > 20 µM | > 20 µM | > 20 µM | > 20 µM | > 20 µM | > 20 µM | > 20 µM | > 20 µM | CC[C@H](NC(=O)[C@H](C)NC)C(=O)N1C[C@@H](O)C[C@H]1Cc1c(-c2[nH]c3cc(F)ccc3c2C[C@@H]2C[C@H](O)CN2C(=O)[C@H](CC)NC(=O)[C@H](C)NC)[nH]c2cc(F)ccc12 [BIRINAPANT] | > 20 µM |
| > 20 µM | > 20 µM | > 20 µM | > 20 µM | > 20 µM | > 20 µM | > 20 µM | > 20 µM | O=C(O)c1sccc1S(=O)(=O)n1ccc2cc(Br)ccc21 | > 20 µM |
| > 20 µM | > 20 µM | > 20 µM | > 20 µM | > 20 µM | > 20 µM | > 20 µM | > 20 µM | COc1ccc2sc3c(c2c1)NC(C)CNC3=O (stereo not given) | 8.52 µM |
| > 20 µM | > 20 µM | > 20 µM | > 20 µM | > 20 µM | > 20 µM | > 20 µM | > 20 µM | CC(=O)N1c2ccccc2NC2=C(C(=O)CC(C)(C)C2)C1c1ccc(OCc2ccccc2)cc1 (stereo not given) | > 20 µM |
| > 20 µM | > 20 µM | > 20 µM | > 20 µM | > 20 µM | > 20 µM | > 20 µM | > 20 µM | Cc1cc(Nc2ccc(F)cc2)nc(SCc2nc3ccccc3[nH]2)n1 | > 20 µM |
| > 20 µM | > 20 µM | > 20 µM | > 20 µM | > 20 µM | > 20 µM | > 20 µM | > 20 µM | O=C(Nc1ccc(F)cc1)c1nn(-c2ccccc2)c(=O)cc1Cl | 8.2 µM |
| > 20 µM | > 20 µM | > 20 µM | > 20 µM | > 20 µM | > 20 µM | > 20 µM | > 20 µM | Cc1cc(CCCOc2c(C)cc(-c3noc(C(F)(F)F)n3)cc2C)on1 [PLECONARIL] | > 20 µM |
| > 20 µM | > 20 µM | > 20 µM | > 20 µM | > 20 µM | > 20 µM | > 20 µM | > 20 µM | CC(C)(C)c1ccc(Oc2ccc(N)cc2)cc1 | > 20 µM |
| > 20 µM | > 20 µM | > 20 µM | > 20 µM | > 20 µM | > 20 µM | > 20 µM | > 20 µM | CCCCCCC1c2ccc(O)cc2Oc2cc(O)ccc21 | > 20 µM |
| > 20 µM | > 20 µM | > 20 µM | > 20 µM | > 20 µM | > 20 µM | > 20 µM | > 20 µM | c1ccc(-c2nnc3c4ccccc4c(N4CCNCC4)nn23)cc1 | 14.2 µM |
| > 20 µM | > 20 µM | > 20 µM | > 20 µM | > 20 µM | > 20 µM | > 20 µM | > 20 µM | NC(=O)c1c(N)sc2c1CCCCC2 | > 20 µM |
| > 20 µM | > 20 µM | > 20 µM | > 20 µM | > 20 µM | > 20 µM | > 20 µM | > 20 µM | Nc1nc2c(Cc3cccnc3)c[nH]c2c(=O)[nH]1 [PELDESINE] | > 20 µM |
| > 20 µM | > 20 µM | > 20 µM | > 20 µM | > 20 µM | > 20 µM | > 20 µM | > 20 µM | CCc1cc(CCCOc2c(C)cc(-c3noc(C(F)(F)F)n3)cc2C)on1 | > 20 µM |
| > 20 µM | > 20 µM | > 20 µM | > 20 µM | > 20 µM | > 20 µM | > 20 µM | > 20 µM | CN(C)CCNC(=O)c1cccc2cccnc12 | > 20 µM |
| 20 µM (≈ 6.58 µg/mL) | 20 µM (≈ 6.58 µg/mL) | 20 µM (≈ 6.58 µg/mL) | > 20 µM | > 20 µM | > 20 µM | > 20 µM | 5 µM (≈ 1.65 µg/mL) | Clc1cc(Cl)c2c(c1)CCc1ccccc1C2n1ccnc1 (stereo not given) | > 20 µM |
| > 20 µM | > 20 µM | > 20 µM | > 20 µM | > 20 µM | > 20 µM | > 20 µM | > 20 µM | Nc1nc(NC2Cc3ccc(F)cc3C2)nc(N2CCCCC2)n1 (stereo not given) | > 20 µM |
| > 20 µM | > 20 µM | > 20 µM | > 20 µM | > 20 µM | > 20 µM | > 20 µM | > 20 µM | OC1O[C@H](CSc2ccc(F)cc2)[C@@H](O)[C@H]1O (stereo not given in full) | > 20 µM |
| > 20 µM | > 20 µM | > 20 µM | > 20 µM | > 20 µM | > 20 µM | > 20 µM | > 20 µM | O=S(=O)(NCB(O)O)c1ccc(-c2nnn[nH]2)cc1C(F)(F)F | > 20 µM |
| > 20 µM | > 20 µM | > 20 µM | > 20 µM | > 20 µM | > 20 µM | > 20 µM | > 20 µM | Cc1ncc([N+](=O)[O-])n1CC(C)O (stereo not given) [SECNIDAZOLE] | > 20 µM |

| SMILES | MIC [2] | MIC [3] | MIC [4] | MIC [5] | MIC [6] | MIC [7] | MIC [8] | MIC [9] | CC50 [1] |
| --- | --- | --- | --- | --- | --- | --- | --- | --- | --- |
| C=C(C)[C@@H]1CC[C@]2(C(=O)O)CC[C@]3(C)[C@H](CC[C@@H]4[C@@]5(C)CC[C@H](O)C(C)(C)[C@@H]5CC[C@]43C)[C@@H]12 [BETULINIC ACID] | > 20 µM | > 20 µM | > 20 µM | > 20 µM | > 20 µM | > 20 µM | > 20 µM | > 20 µM | > 20 µM |
